Converted amounts (≈) assume the structure as drawn. Like-named read-outs stand apart in the source and are kept apart here.
Experiments:
AECO001 (ATCC25922) = experiment: MIC broth microdilution, AECO001; format: cell-based, E. coli; settings: Escherichia coli
Protocol: (§1) Bacterial isolates were cultivated from −70° C. frozen stocks by overnight passages at 35° C. in ambient air on Mueller-Hinton agar (Beckton Dickinson, Franklin Lakes, N.J.). Clinical isolates tested were obtained from various geographically diverse hospitals in the US and abroad (Focus Diagnostics, Herndon, Va. and JMI, North Liberty, Iowa). Quality control strains were from the American Type Culture Collection (ATCC; Rockville, Md.). Additional primary panel strains were generated using standard molecular biology techniques.
(§2) Minimum Inhibitory Concentrations (MICs) were determined by the broth microdilution method in accordance with the Clinical and Laboratory Standards Institute (CLSI) guidelines. In brief, organism suspensions were adjusted to a 0.5 McFarland standard to yield a final inoculum between 3×10^5 and 7×10^5 colony-forming units (CFU)/mL. Drug dilutions and inocula were made in sterile, cation adjusted Mueller-Hinton Broth (Beckton Dickinson). An inoculum volume of 100 μL was added to wells containing 100 μL of broth with 2-fold serial dilutions of drug. All inoculated microdilution trays were incubated in ambient air at 35° C. for 18-24 hours. […] Performance of the assay was monitored by the use of laboratory quality-control strains and levofloxacin, a compound with a defined MIC spectrum, in accordance with CLSI guidelines.
(§3) *AECO001 is ATCC25922, AECO063 is ATCC25922 bearing an acrAB mutation, APAE001 is ATCC27853, APAE006 is a strain of P. aeruginosa in which all efflux pumps are inactivated, APAE006+PMBN indicates MICs with the indicated strain in the presence of 8 micrograms per milliliter of polymyxin B nonapeptide, AABA1060 is a clinical isolate of Acinetobacter baumannii, ASAU001 is a laboratory strain of S. aureus (ATCC29213).

[1] = test system: APAE006 (strain of P. aeruginosa in which all efflux pumps are inactivated); experiment: microbe, parasite or virus in culture; format: cell-based; settings: Pseudomonas aeruginosa
Protocol: as §1, §2, §3

[2] = test system: AABA1060 (clinical isolate of Acinetobacter baumannii); experiment: MIC broth microdilution, AABA1060; format: cell-based; settings: Acinetobacter baumannii, read-out: MIC AABA1060
Protocol: as §1, §2, §3

[3] = test system: APAE006 in the presence of 8 micrograms per milliliter of polymyxin B nonapeptide; format: cell-based, P. aeruginosa; settings: APAE006 with 8 micrograms per milliliter polymyxin B nonapeptide
Protocol: as §1, §2, §3

[4] = test system: ASAU001 (laboratory strain of S. aureus, ATCC29213); experiment: MIC broth microdilution, ASAU001; format: cell-based; settings: Staphylococcus aureus, ATCC29213, read-out: MIC ASAU001
Protocol: as §1, §2, §3

[5] = test system: AECO063 (ATCC25922 bearing an acrAB mutation); experiment: microbe, parasite or virus in culture; format: cell-based, E. coli; settings: Escherichia coli, ATCC25922, read-out: MIC AECO063
Protocol: as §1, §2, §3

APAE001 (ATCC27853) = experiment: MIC broth microdilution, APAE001; format: cell-based, P. aeruginosa; settings: Pseudomonas aeruginosa
Protocol: as §1, §2, §3

[6] = ATCC25922, read-out: MIC AECO001
[7] = ATCC25922, read-out: MIC AECO001 HSA AGP
[8] = read-out: MIC APAE006, APAE006, all efflux pumps inactivated
[9] = ATCC27853, read-out: MIC APAE001, APAE001 (ATCC27853)
[10] = read-out: MIC APAE006, P. aeruginosa, all efflux pumps inactivated
[11] = ATCC27853, read-out: MIC APAE001, APAE001 is ATCC27853

| SMILES | MIC (AECO001 (ATCC25922); [6]) | MIC (AECO001 (ATCC25922); [7]) | MIC [1, 8] | MIC [2] | MIC APAE006 + PMBN [3] | MIC [4] | MIC [5] | MIC (APAE001 (ATCC27853); [9]) | MIC [1, 10] | MIC (APAE001 (ATCC27853); [11]) |
| --- | --- | --- | --- | --- | --- | --- | --- | --- | --- | --- |
| C[C@@H](N)[C@H](NC(=O)c1ccc(C#CC#CCC2CCCC2)cc1)C(=O)NO [Example 91-25] | 16 to 64 µg/mL (≈ 43.5 to 174 µM) | 16 to 64 µg/mL (≈ 43.5 to 174 µM) | 2 to 16 µg/mL (≈ 5.44 to 43.5 µM) | 16 to 64 µg/mL (≈ 43.5 to 174 µM) | B (MIC's of greater than 2.0 μg/mL to 16.0 μg/mL = B) | 16 to 64 µg/mL (≈ 43.5 to 174 µM) | 16 to 64 µg/mL (≈ 43.5 to 174 µM) | 16 to 64 µg/mL (≈ 43.5 to 174 µM) |  |  |
| C[C@@H](O)[C@H](NC(=O)c1ccc(/C=C/C#Cc2ccc(F)cc2)cc1)C(=O)NO [Example 114-11] | < 2 µg/mL | 16 to 64 µg/mL (≈ 41.8 to 167 µM) | < 2 µg/mL | 2 to 16 µg/mL (≈ 5.23 to 41.8 µM) | A (MIC's of 2.0 μg/mL or less = A) | 16 to 64 µg/mL (≈ 41.8 to 167 µM) | < 2 µg/mL | 16 to 64 µg/mL (≈ 41.8 to 167 µM) |  |  |
| CC(C)(N)[C@H](NC(=O)c1ccc(C#CC#Cc2ccccc2F)cc1)C(=O)NO [Example 82-29] | < 2 µg/mL | < 2 µg/mL | < 2 µg/mL | < 2 µg/mL |  | 2 to 16 µg/mL (≈ 5.08 to 40.7 µM) |  | < 2 µg/mL |  |  |
| C[C@@H](O)[C@H](NC(=O)c1ccc(C#CC#Cc2ccncc2)cc1)C(=O)NO [Example 137-19] | < 2 µg/mL | 2 to 16 µg/mL (≈ 5.5 to 44 µM) | < 2 µg/mL | 16 to 64 µg/mL (≈ 44 to 176 µM) | A (MIC's of 2.0 μg/mL or less = A) | 16 to 64 µg/mL (≈ 44 to 176 µM) | < 2 µg/mL | 2 to 16 µg/mL (≈ 5.5 to 44 µM) |  |  |
| CC(C)(O)[C@H](NC(=O)c1ccc(C#Cc2ccc(CNCC(F)F)cc2)cc1)C(=O)NO [Example 119-5] | < 2 µg/mL | < 2 µg/mL | < 2 µg/mL | < 2 µg/mL | A (MIC's of 2.0 μg/mL or less = A) | 16 to 64 µg/mL (≈ 35.9 to 144 µM) | < 2 µg/mL | < 2 µg/mL |  |  |
| CC(C)(N)[C@H](NC(=O)c1ccc(/C=C/C#CC2CC2)cc1)C(=O)NO [Example 114-18] | < 2 µg/mL | 2 to 16 µg/mL (≈ 5.86 to 46.9 µM) | < 2 µg/mL | < 2 µg/mL | A (MIC's of 2.0 μg/mL or less = A) | 16 to 64 µg/mL (≈ 46.9 to 187 µM) | < 2 µg/mL | < 2 µg/mL |  |  |
| COCCNCc1ccc(C#Cc2ccc(C(=O)N[C@H](C(=O)NO)[C@@H](C)N)cc2)cc1 [Example 122-1, N-((1S,2R)-2-Amino-1-hydroxycarbamoyl-propyl)-4-{4-[(2-methoxy-ethylamino)-methyl]-phenylethynyl}-benzamide] | 2 to 16 µg/mL (≈ 4.71 to 37.7 µM) | 2 to 16 µg/mL (≈ 4.71 to 37.7 µM) | < 2 µg/mL | 16 to 64 µg/mL (≈ 37.7 to 151 µM) | A (MIC's of 2.0 μg/mL or less = A) | 16 to 64 µg/mL (≈ 37.7 to 151 µM) | < 2 µg/mL | 2 to 16 µg/mL (≈ 4.71 to 37.7 µM) |  |  |
| C[C@H](NCC(=O)N[C@H](C)[C@H](NC(=O)c1ccc(C#Cc2ccccc2)cc1)C(=O)NO)c1ccccc1 [Example 132-5] | 16 to 64 µg/mL (≈ 32.1 to 128 µM) | 16 to 64 µg/mL (≈ 32.1 to 128 µM) | < 2 µg/mL | 16 to 64 µg/mL (≈ 32.1 to 128 µM) |  | 16 to 64 µg/mL (≈ 32.1 to 128 µM) |  | 16 to 64 µg/mL (≈ 32.1 to 128 µM) |  |  |
| O=C(NO)[C@@H](Cc1ccccc1)NS(=O)(=O)c1ccc(C#Cc2ccc(CN3CCOCC3)cc2)cc1 [Example 62-4, (R)—N-Hydroxy-2-[4-(4-morpholin-4-ylmethyl-phenylethynyl)-benzenesulfonylamino]-3-phenyl-propionamide] | 2 to 16 µg/mL (≈ 3.85 to 30.8 µM) |  |  |  |  | > 64 µg/mL |  |  | 2 to 16 µg/mL (≈ 3.85 to 30.8 µM) | > 64 µg/mL |
| O=C(NO)[C@H](COCc1ccccc1)NS(=O)(=O)c1ccc(C#Cc2ccc(CN3CCOCC3)cc2)cc1 [Example 62-5] | 2 to 16 µg/mL (≈ 3.64 to 29.1 µM) |  |  |  |  | > 64 µg/mL |  |  | 16 to 64 µg/mL (≈ 29.1 to 116 µM) | > 64 µg/mL |
| O=C(NO)[C@@H]1CCCN1S(=O)(=O)c1ccc(C#Cc2ccc(CN3CCOCC3)cc2)cc1 [Example 62-10] | 2 to 16 µg/mL (≈ 4.26 to 34.1 µM) |  |  |  |  | > 64 µg/mL |  |  | < 2 µg/mL | > 64 µg/mL |
| C[C@@H](N)[C@H](NC(=O)c1ccc(C#CC#CCC2CC2)cc1)C(=O)NO [Example 91-27] | < 2 µg/mL | 2 to 16 µg/mL (≈ 5.89 to 47.1 µM) | < 2 µg/mL | 2 to 16 µg/mL (≈ 5.89 to 47.1 µM) |  | 16 to 64 µg/mL (≈ 47.1 to 189 µM) | < 2 µg/mL | < 2 µg/mL |  |  |
| CC(C)CC#CC#Cc1ccc(C(=O)N[C@H](C(=O)NO)[C@@H](C)N)cc1 [Example 91-24] | < 2 µg/mL | 2 to 16 µg/mL (≈ 5.86 to 46.9 µM) | < 2 µg/mL | 2 to 16 µg/mL (≈ 5.86 to 46.9 µM) |  | 2 to 16 µg/mL (≈ 5.86 to 46.9 µM) | < 2 µg/mL | < 2 µg/mL |  |  |
| CC(C)(O)[C@H](NC(=O)c1ccc(C#CC#Cc2cccs2)cc1)C(=O)NO [Example 88-11] | < 2 µg/mL | < 2 µg/mL | < 2 µg/mL | < 2 µg/mL |  | 16 to 64 µg/mL (≈ 41.8 to 167 µM) | < 2 µg/mL | < 2 µg/mL |  |  |
| O=C(NO)[C@H](Cc1ccccc1)NS(=O)(=O)c1ccc(C#Cc2ccc(CN3CCOCC3)cc2)cc1 [Example 62-6] | 16 to 64 µg/mL (≈ 30.8 to 123 µM) |  |  |  |  | > 64 µg/mL |  |  | 2 to 16 µg/mL (≈ 3.85 to 30.8 µM) | > 64 µg/mL |
| O=C(NO)C1(NS(=O)(=O)c2ccc(C#Cc3ccc(CN4CCOCC4)cc3)cc2)CCCC1 [Example 62-8] | 16 to 64 µg/mL (≈ 33.1 to 132 µM) |  |  |  |  | > 64 µg/mL |  |  | 16 to 64 µg/mL (≈ 33.1 to 132 µM) | > 64 µg/mL |
| O=C(NO)[C@@H]1CCN1S(=O)(=O)c1ccc(C#Cc2ccc(CN3CCOCC3)cc2)cc1 [Example 62-11] | 2 to 16 µg/mL (≈ 4.39 to 35.1 µM) |  |  |  |  | > 64 µg/mL |  |  | < 2 µg/mL | > 64 µg/mL |
| CSC[C@H](NS(=O)(=O)c1ccc(C#Cc2ccc(CN3CCOCC3)cc2)cc1)C(=O)NO [Example 62-9] | 16 to 64 µg/mL (≈ 32.7 to 131 µM) |  |  |  |  | > 64 µg/mL |  |  | 2 to 16 µg/mL (≈ 4.08 to 32.7 µM) | > 64 µg/mL |
| CC(C)(N)[C@H](NC(=O)c1ccc(C#CC#CCC2CC2)cc1)C(=O)NO [Example 91-26] | < 2 µg/mL | < 2 µg/mL | < 2 µg/mL | < 2 µg/mL |  | 16 to 64 µg/mL (≈ 45.3 to 181 µM) | < 2 µg/mL | < 2 µg/mL |  |  |
